Tested on: STING (IRF pathway reporter in THP1-Dual™ cells, THP-1 (HAQ))
Experiment: Reporter gene expression assay in THP-1 cells (THP1-Dual, IRF pathway Lucia luciferase, 2′,3′-cGAMP stimulation)
Assay type: cell-based, human
Conditions: 10 min preincubation, 5 μM 2′,3′-cGAMP, 20 hr, IRF pathway luciferase (QUANTI-Luc), IC50 range class
Method: THP1-Dual™ cells (Invivogen) were derived from the human THP-1 monocyte cell line by stable integration of two inducible reporter constructs. As a result, THP1-Dual™ cells allow the simultaneous study of the IRF pathway, by assessing the activity of a secreted luciferase (Lucia) and the NF-κB pathway, by monitoring the activity of secreted SEAP. 5×10^4 THP1-Dual™ cells were seeded in 384-well plates in growth medium and preincubated with novel compounds for 10 minutes followed by stimulation with 5 μM 2′,3′-cGAMP. After 20 hr of stimulation the supernatant was removed and the IRF pathway reporter protein was readily measured in the cell culture supernatant using QUANTI-Luc™ (Invivogen), a luciferase detection reagent on a Spectramax i3X luminometer.
In the tables below, IC50 value ranges for exemplary compounds are given. The IC50 ranges are indicated as “A” for values less than or equal to 1 μM, “B” for values greater than 1 μM and less than or equal to 10 μM, and “C” for values greater than 10 μM.

Compound | IC50
O=C(Nc1ccc2cc[nH]c2c1)NC(CC(O)CO)c1ccc2c(c1)N(Cc1ccccc1)CCO2 (single isomer, unassigned) [Example 8, 1-(1-(4-Benzyl-3,4-dihydro-2H-benzo[b][1,4]oxazin-6-yl)-3,4-dihydroxybutyl)-3-(1H-indol-6-yl)urea] | > 10 µM

Same assay, conditions: Homo sapiens, 10 min preincubation, 5 μM 2′,3′-cGAMP, 20 hr, IRF pathway luciferase (QUANTI-Luc), IC50 range class

Compound | IC50
COCCN(C)C(=O)CC(NC(=O)Nc1ccc2cc[nH]c2c1)c1ccc2c(c1)N(Cc1ccccc1)CCS2 (stereo not drawn) [Example 33, 3-(3-(1H-indol-6-yl)ureido)-3-(4-benzyl-3,4-dihydro-2H-benzo[b][1,4]thiazin-6-yl)-N-(2-methoxyethyl)-N-methylpropanamide] | 1 to 10 µM
O=C(NCc1ccc2c(c1)N(Cc1ccccc1)CCO2)Nc1ccc2cc[nH]c2c1 [Example 15, 1-((4-benzyl-3,4-dihydro-2H-benzo[b][1,4]oxazin-6-yl)methyl)-3-(1H-indol-6-yl)urea] | ≤ 1 µM
O=C(Nc1ccc2cc[nH]c2c1)NC(CO)c1ccc2c(c1)N(Cc1ccccc1)CCS2 (racemic) [Example 11, 1-(1-(4-Benzyl-3,4-dihydro-2H-benzo[b][1,4]thiazin-6-yl)-2-hydroxyethyl)-3-(1H-indol-6-yl)urea] | ≤ 1 µM
O=C(Nc1ccc2cc[nH]c2c1)NC(CC(=O)N1CCOCC1)c1ccc2c(c1)N(Cc1ccccc1)CCS2 (stereo not drawn) [Example 30, 1-(1-(4-benzyl-3,4-dihydro-2H-benzo[b][1,4]thiazin-6-yl)-3-morpholino-3-oxopropyl)-3-(1H-indol-6-yl)urea] | 1 to 10 µM
O=C(Nc1ccc2cc[nH]c2c1)NC(CCN1CCOCC1)c1ccc2c(c1)N(Cc1ccccc1)CCS2 (stereo not drawn) [Example 22, 1-(1-(4-benzyl-3,4-dihydro-2H-benzo[b][1,4]thiazin-6-yl)-3-morpholinopropyl)-3-(1H-indol-6-yl)urea] | > 10 µM
O=C(NCc1ccc2c(c1)OCC(=O)N2Cc1ccccc1)Nc1ccc2cc[nH]c2c1 [Example 2, 1-((4-Benzyl-3-oxo-3,4-dihydro-2H-benzo[b][1,4]oxazin-7-yl)methyl)-3-(1H-indol-6-yl)urea] | 1 to 10 µM
O=C(NCc1ccc2c(c1)SCC(=O)N2Cc1ccccc1)Nc1ccc2cc[nH]c2c1 [Example 17, 1-((4-benzyl-3-oxo-3,4-dihydro-2H-benzo[b][1,4]thiazin-7-yl)methyl)-3-(1H-indol-6-yl)urea] | ≤ 1 µM
CN(C(=O)CC(NC(=O)Nc1ccc2cc[nH]c2c1)c1ccc2c(c1)N(Cc1ccccc1)CCS2)C1CC1 (stereo not drawn) [Example 32, 3-(3-(1H-indol-6-yl)ureido)-3-(4-benzyl-3,4-dihydro-2H-benzo[b][1,4]thiazin-6-yl)-N-cyclopropyl-N-methylpropanamide] | > 10 µM
O=C(NCc1ccc2c(c1)N(Cc1ccccc1)C(=O)CS2)Nc1ccc2cc[nH]c2c1 [Example 18, 1-((4-benzyl-3-oxo-3,4-dihydro-2H-benzo[b][1,4]thiazin-6-yl)methyl)-3-(1H-indol-6-yl)urea] | 1 to 10 µM
O=C(CC(NC(=O)Nc1ccc2cc[nH]c2c1)c1ccc2c(c1)N(Cc1ccccc1)CCS2)Nc1cccnc1 (stereo not drawn) [Example 34, 3-(3-(1H-indol-6-yl)ureido)-3-(4-benzyl-3,4-dihydro-2H-benzo[b][1,4]thiazin-6-yl)-N-(pyridin-3-yl)propanamide] | > 10 µM
NC(=O)CC(NC(=O)Nc1ccc2cc[nH]c2c1)c1ccc2c(c1)N(Cc1ccccc1)CCS2 (stereo not drawn) [Example 23, 3-(3-(1H-indol-6-yl)ureido)-3-(4-benzyl-3,4-dihydro-2H-benzo[b][1,4]thiazin-6-yl)propanamide] | ≤ 1 µM

From patent US20240360119A1, “SMALL MOLECULE UREA DERIVATIVES AS STING ANTAGONISTS” (CURADEV PHARMA PVT. LTD., priority 2021, published 2024)
